The values that follow are results of earlier work, collected in patent US20200138845A1, “Combination Drug Therapy” (ViiV Healthcare Company, priority 2017, published 2020).

SMILES strings stand for the structures.

The test system of this data set is HIV-1 strains. The settings on record: antiviral activity against a broad range of HIV-1 strains.

Regarding `C[C@H]1CO[C@@H]2Cn3cc(C(=O)NCc4ccc(F)cc4F)c(=O)c(O)c3C(=O)N12` [Cabotegravir, cabotegravir], the potency entry is recorded as “subnanomolar”.
